In PMC4538566 (Journal of Medicinal Chemistry, 2015):
One block for each compound: values may come before it.

Key:
[1] = Caco-2 cell monolayers transport assay; assay type: in vitro ADME; settings: human, Caco-2
In situ rat perfusion = assay type: in vivo; settings: 100 μM; for Ka1 absorption rate coefficient: six independent experiments
pancreas MiaPaca2 = assay type: cell-based, human; settings: read-out: IC50 MiaPaca2; 24 h incubation, MTT, mean ± SD (n = 4)
plasmid (pBR322) DNA = experiment: Electrophoresis mobility shift assay with plasmid DNA; assay type: binding; settings: 37 °C, 20 h, metal/DNAbp ratios 0.25–2.0
leukemia Jurkat-T = assay type: cell-based, human; settings: read-out: IC50 Jurkat; 24 h incubation, MTT, mean ± SD (n = 4)
prostate DU-145 = assay type: cell-based, human; settings: read-out: IC50 DU-145; 24 h incubation, MTT, mean ± SD (n = 4)
[2] = tested on: non-tumorigenic human embryonic kidney cells HEK293T; assay type: cell-based; settings: read-out: IC50 HEK-293T; 24 h incubation, MTT, mean ± SD (n = 4)
[3] = tested on: triple-negative breast MDA-MB-231; assay type: cell-based, human; settings: read-out: IC50 MDA-MB-231; 24 h incubation, MTT, mean ± SD (n = 4)
lung A549 = assay type: cell-based, human; settings: read-out: IC50 A549; 24 h incubation, MTT, mean ± SD (n = 4)
Caco-2 monolayers = experiment: Caco-2 cell monolayers transport assay; assay type: in vitro ADME; settings: Caco-2 monolayers, 20 μM, three independent experiments

Compound: N.N.[Cl][Pt][Cl] [cisplatin]
IC50 (pancreas MiaPaca2): 76.5 ± 7.4 µM
effect on electrophoretic mobility of plasmid forms (plasmid (pBR322) DNA): able to both increase and decrease the mobility of the OC and the CCC forms
IC50 (leukemia Jurkat-T): 10.8 ± 1.2 µM
IC50 (prostate DU-145): 112 ± 33 µM
IC50 [2]: 69 ± 6.7 µM
IC50 [3]: 131 ± 18 µM
IC50 (lung A549): 114 ± 9.1 µM

Compound: Lucifer Yellow
Peff (Caco-2 monolayers): 1.90 × 10^–7 cm/s

Compound: CC(C)NCC(O)COc1ccc(CC(N)=O)cc1 (stereo not drawn) [atenolol]
Peff (In situ rat perfusion): 5.19 × 10^–6 cm/s

Further lines, results first:

Papp at 90 min, 20 μM [1]: 23.2 ×10⁻⁶ cm/s
Peff (In situ rat perfusion): 5.40 × 10^–5 cm/s
Ka1 absorption rate coefficient (In situ rat perfusion): 2.30 h^–1
Compound: COCCc1ccc(OCC(O)CNC(C)C)cc1 (stereo not drawn) [metoprolol]

Papp at 90 min, 20 μM [1]: 1.86 ×10⁻⁶ cm/s
Peff (In situ rat perfusion): 3.97 × 10^–5 cm/s
Ka1 absorption rate coefficient (In situ rat perfusion): 1.68 h^–1
Compound: CN/C(=N/CCSCc1nc[nH]c1C)NC#N [cimetidine]
